Laboratory results published in ChEMBL document CHEMBL3779887, “Robenidine Analogues as Gram-Positive Antibacterial Agents” (J Med Chem, 2016).
≈ marks a conversion by molar mass, not a printed value. Calls of active or inactive are those of the source. The rule behind the calls is not given here.

Tests used:
Assay type in all cases: functional
Staphylococcus aureus = assay: Antibacterial activity against methicillin-resistant Staphylococcus aureus after 20 to 24 hrs
Enterococcus = assay: Antibacterial activity against vancomycin-resistant Enterococcus after 20 to 24 hrs
Escherichia coli = assay: Antibacterial activity against Escherichia coli ATCC 25922 after 20 to 24 hrs
Pseudomonas aeruginosa = assay: Antibacterial activity against Pseudomonas aeruginosa ATCC 27853 after 20 to 24 hrs

Compound	MIC (Staphylococcus aureus) [µM]	MIC (Enterococcus) [µM]	MIC (Escherichia coli) [µM]	MIC (Pseudomonas aeruginosa) [µM]	Activity (Staphylococcus aureus)	Activity (Enterococcus)	Activity (Escherichia coli)
COc1cc(/C=N/NC(=N)N/N=C/c2cc(Br)c(OC)c(OC)c2)cc(Br)c1OC	> 400	> 400	> 400	> 400			
N=C(N/N=C/c1ccc(O)c(O)c1O)N/N=C/c1ccc(O)c(O)c1O	161 (≈ 58.2 µg/mL)	161 (≈ 58.2 µg/mL)	> 400	> 400			
CC(=O)Nc1cc(Cl)ccc1/C=N/NC(=N)N/N=C/c1ccc(Cl)cc1NC(C)=O	> 400	> 400	> 400	> 400			
N=C(N/N=C/c1ccc(Cl)cc1O)N/N=C/c1ccc(Cl)cc1O	80 (≈ 29.3 µg/mL)	45 (≈ 16.5 µg/mL)	> 400	> 400			
COc1ccccc1/C=N/NC(=N)N/N=C/c1ccccc1OC	> 400	358 (≈ 116 µg/mL)	> 400	> 400			
N=C(N/N=C/c1c(F)c(F)c(F)c(F)c1F)N/N=C/c1c(F)c(F)c(F)c(F)c1F	> 400	> 400	> 400	> 400			
N=C(N/N=C/c1cccnc1N)N/N=C/c1cccnc1N	> 400	> 400					
N=C(N/N=C/c1cnc2ccccc2c1)N/N=C/c1cnc2ccccc2c1					inactive	inactive	
COc1cc(/C=N/NC(=N)N/N=C/c2ccc(O)c(OC)c2)ccc1O	244 (≈ 87.2 µg/mL)	163 (≈ 58.3 µg/mL)	> 400	> 400			
CC(C)c1ccc(/C=N/NC(=N)N/N=C/c2ccc(C(C)C)cc2)cc1	9.1 (≈ 3.18 µg/mL)	13 (≈ 4.54 µg/mL)	> 400	> 400			
N=C(N/N=C/C=C/c1ccccc1)N/N=C/C=C/c1ccccc1	> 400	> 400					
N=C(N/N=C/c1cc(Cl)cc(Cl)c1)N/N=C/c1cc(Cl)cc(Cl)c1	> 400	> 400	> 400	> 400			
N=C(N/N=C/c1ccc(O)c([N+](=O)[O-])c1)N/N=C/c1ccc(O)c([N+](=O)[O-])c1	> 400	> 400	> 400	> 400			
N=C(N/N=C/c1ccc(F)cc1)N/N=C/c1ccc(F)cc1	47 (≈ 14.2 µg/mL)	23.7 (≈ 7.14 µg/mL)	> 400	> 400			
N=C(N/N=C/c1cccc(O)c1O)N/N=C/c1cccc(O)c1O	88 (≈ 29 µg/mL)	262 (≈ 86.3 µg/mL)	> 400	> 400			
C/C(=N\NC(=N)N/N=C(\C)c1ccc(Br)cc1)c1ccc(Br)cc1	16.4 (≈ 7.4 µg/mL)	24.6 (≈ 11.1 µg/mL)					inactive
N=C(N/N=C/c1cnccc1Cl)N/N=C/c1cnccc1Cl	172 (≈ 57.8 µg/mL)	86 (≈ 28.9 µg/mL)					

Compound	MIC (Staphylococcus aureus) [µM]	MIC (Enterococcus) [µM]	MIC (Escherichia coli) [µM]	MIC (Pseudomonas aeruginosa) [µM]	Activity (Staphylococcus aureus)	Activity (Enterococcus)	Activity (Escherichia coli)
N=C(N/N=C/c1c(Cl)cccc1Cl)N/N=C/c1c(Cl)cccc1Cl	> 400	> 400	> 400	> 400			
C/C(=N\NC(=N)N/N=C(\C)c1ccc(C)cc1)c1ccc(C)cc1	11.2 (≈ 3.6 µg/mL)	8.4 (≈ 2.7 µg/mL)					inactive
COc1ccc(/C=N/NC(=N)N/N=C/c2ccc(OC)cc2)cc1	> 400	> 400	> 400	> 400			
C/C(=N\NC(=N)N/N=C(\C)c1ccc(C(C)(C)C)cc1)c1ccc(C(C)(C)C)cc1	4.5 (≈ 1.83 µg/mL)	36.2 (≈ 14.7 µg/mL)					inactive
CCCCc1ccc(/C=N/NC(=N)N/N=C/c2ccc(CCCC)cc2)cc1	232 (≈ 87.6 µg/mL)	193 (≈ 72.9 µg/mL)	> 400	> 400			
N=C(N/N=C/c1ccc(O)cc1)N/N=C/c1ccc(O)cc1	192 (≈ 57.1 µg/mL)	288 (≈ 85.6 µg/mL)	> 400	> 400			
N=C(N/N=C/c1ccccc1F)N/N=C/c1ccccc1F	> 400	> 400	> 400	> 400			
N=C(N/N=C/c1ccccc1-c1ccccc1)N/N=C/c1ccccc1-c1ccccc1	> 400	> 400	> 400	> 400			
C/C(=N\NC(=N)N/N=C(\C)c1ccc(C(F)(F)F)cc1)c1ccc(C(F)(F)F)cc1	> 400	17.2 (≈ 7.39 µg/mL)					inactive
CCCC/C(=N\NC(=N)N/N=C(\CCCC)c1ccc(Cl)cc1)c1ccc(Cl)cc1	> 400	> 400					inactive
CCC/C(=N\NC(=N)N/N=C(\CCC)c1ccc(Cl)cc1)c1ccc(Cl)cc1	> 400	> 400					inactive
N=C(N/N=C/c1cnc2ccccc2n1)N/N=C/c1cnc2ccccc2n1					inactive	inactive	
N=C(N/N=C(\CN)c1ccccc1)N/N=C(\CN)c1ccccc1	> 400	> 400					inactive
C/C(=N\NC(=N)N/N=C(\C)c1ccc(N2CCNCC2)cc1)c1ccc(N2CCNCC2)cc1	243 (≈ 112 µg/mL)	278 (≈ 128 µg/mL)					inactive
COc1ccc(/C=C/C=N/NC(=N)N/N=C/C=C/c2ccc(OC)cc2)cc1	309 (≈ 117 µg/mL)	> 400					
N=C(N/N=C/c1csc2ccc(Cl)cc12)N/N=C/c1csc2ccc(Cl)cc12	> 400	33.1 (≈ 14.8 µg/mL)					
